This is an account of results in patent publication US20230338370A1, “Treatment of Cancer with TOR Kinase Inhibitors” (Signal Pharmaceuticals, LLC, priority 2012, published 2023).

The structures appear in SMILES notation.

Holding throughout (assay): Growth inhibition assay for Breast Cancer (BC) Cell lines
Holding throughout (type): cell-based

In one test the test system is EFM-19. Conditions: Homo sapiens; EFM-19, ER+/PR+; 96 hours, Cell Titer-Glo. Here is the method: (§1) Growth inhibition assay for Breast Cancer (BC) Cell lines. Compounds 1 (a TOR kinase inhibitor set forth herein having molecular formula C16H16N8O) and 2 (a TOR kinase inhibitor set forth herein having molecular formula C17H18N8O2) were dissolved in dimethyl sulfoxide (DMSO) to prepare a 10 mM stock solution. A serial titration was performed to produce a working concentration range of 1.5 µM to 10 mM. Aliquots to produce final concentrations of 1.5 nM to 10 µM were spotted via an acoustic dispenser (EDC ATS-100) into an empty 384-well plate. Compounds 1 and 2 were spotted in a 10-point serial dilution fashion (3-fold dilution) in duplicate within the plate. The DMSO concentration was kept constant for a final assay concentration of 0.1% DMSO. Plates were replicated for use with different cell lines and testing periods. After compound plate replication, all plates were sealed (Agilent ThermoLoc) and stored at -20° C. for up to 1 month. […] When ready for testing, plates were removed from the freezer, thawed, and unsealed just prior to the addition of the test cells. Prior to testing, cells were grown and expanded in culture flasks to provide sufficient amounts of starting material. Cells were then diluted to the appropriate densities and added directly to the compound-spotted 384-well plates. Cells were allowed to grow for 96 hours at 37° C./5% CO2. At the time when compound was added (t0), initial cell number was assessed via a viability assay (Cell Titer-Glo) by quantifying the level of luminescence generated by ATP present in viable cells. After 96 hours, cell viability of compound-treated cells was assessed via Cell Titer-Glo and luminescence measurement. Cell lines were assayed for growth inhibition by Compounds 1 and 2 in at least 3 independent tests. A control cell line (the lung tumor cell line, A549) was included in each of the assays. The compound response against this control cell line was monitored closely to enable comparison of the data generated through the assay period. All data were normalized and presented as a percentage of the DMSO-treated cells. Results were then expressed as a GI50 value. The GI50 value corrects for the cell count at time zero.
A general note: ATP-based viability assays read luminescence as a measure of living cells.

The subject of another test is HCC202. Conditions: HCC202, Her2+; 96 hours, Cell Titer-Glo. Here is the method: as §1
A further test concerns MDA-MB-134-VI. To be noted: Homo sapiens, ER+/PR+, 96 hours, Cell Titer-Glo. Here is the method:
as §1

A further test has as its system CAMA-1. Conditions: Homo sapiens; CAMA-1, ER+/PR+; 96 hours, Cell Titer-Glo. Here is the method: as §1
The test system of a further test is HCC1954. Conditions: Homo sapiens; HCC1954, Her2+; 96 hours, Cell Titer-Glo. Here is the method:
as §1

A further test relates to SK-BR-3. Conditions: Homo sapiens; SK-BR-3, Her2+; 96 hours, Cell Titer-Glo. On the procedure:
as §1

In a further test the test system is T47D. To be noted: Homo sapiens, ER+/PR+, 96 hours, Cell Titer-Glo. Here is the method:
as §1

The test system of another test is BT-483. To be noted: Homo sapiens; BT-483, ER+/PR+; 96 hours, Cell Titer-Glo. Here is the method: as §1
The next test relates to MDA-MB-175-VII. To be noted: Homo sapiens, ER+/PR+, 96 hours, Cell Titer-Glo. On the procedure: as §1
In the next test the test system is MDA-MB-453. Conditions: Homo sapiens; MDA-MB-453, Her2+; 96 hours, Cell Titer-Glo. Here is the method:
as §1

The subject of another test is EFM-192A. Conditions: Her2+, 96 hours, Cell Titer-Glo. On the procedure:
as §1

The next test deals with UACC-812. Conditions: Homo sapiens; UACC-812, Her2+; 96 hours, Cell Titer-Glo. On the procedure:
as §1

For another test, the system named is KPL-1. Conditions: KPL-1, ER+/PR+; 96 hours, Cell Titer-Glo. Here is the method: as §1
The test system of the next test is MCF7. To be noted: Homo sapiens; MCF7, ER+/PR+; 96 hours, Cell Titer-Glo. On the procedure:
as §1

The next test concerns AU565. Conditions: Homo sapiens; AU565, Her2+; 96 hours, Cell Titer-Glo. On the procedure: as §1
The next test concerns HCC1428. To be noted: Homo sapiens; HCC1428, ER+/PR+; 96 hours, Cell Titer-Glo. Here is the method:
as §1

Another test concerns BT-474. Conditions: Homo sapiens; BT-474, Her2+; 96 hours, Cell Titer-Glo. On the procedure:
as §1

The test system of the next test is MDA-MB-361. Conditions: Homo sapiens; MDA-MB-361, Her2+; 96 hours, Cell Titer-Glo. On the procedure:
as §1

In the next test the test system is HCC1500. To be noted: HCC1500, ER+/PR+; 96 hours, Cell Titer-Glo. On the procedure:
as §1

The subject of the next test is MDA-MB-415. Conditions: Homo sapiens; MDA-MB-415, ER+/PR+; 96 hours, Cell Titer-Glo. Here is the method: as §1
For the next test, the system named is ZR-75-1. Conditions: Homo sapiens; ZR-75-1, ER+/PR+; 96 hours, Cell Titer-Glo. Here is the method:
as §1

A further test relates to ZR-75-30. To be noted: Homo sapiens; ZR-75-30, Her2+; 96 hours, Cell Titer-Glo. Here is the method: as §1
The next test deals with HCC1569. Conditions: Homo sapiens; HCC1569, Her2+; 96 hours, Cell Titer-Glo. Here is the method:
as §1

A word on the GI50: it is the concentration at which growth is held to half of that of the control. Low values mean greater sensitivity of the cells, high ones lower sensitivity of the cells. For `COCCN1C(=O)CNc2ncc(-c3ccc(-c4nnc[nH]4)nc3C)nc21` [Compound 2, 1-(2-methoxyethyl)-7-(2-methyl-6-(4H-1,2,4-triazol-3-yl)pyridin-3-yl)-3,4-dihydropyrazino[2,3-b]pyrazin-2(1H)-one], the GI50 came to 21.1 nM with EFM-19; 8.9 nM in the test with HCC202; 69.5 nM with MDA-MB-134-VI; 44.6 nM in the test with CAMA-1; 73.3 nM in the test with HCC1954; 66.8 nM in the test with SK-BR-3. Also, the GI50 worked out at 21.4 nM in the test with T47D; 17.3 nM in the test with BT-483; 17 nM in the test with MDA-MB-175-VII; 44.5 nM in the test with MDA-MB-453; 74.1 nM with EFM-192A; 32.1 nM in the test with UACC-812. Besides, the GI50 in the test on KPL-1 amounted to 50.7 nM; in the test with MCF7 it was 83.4 nM; in the test with AU565, 58.2 nM; with HCC1428, 96.5 nM; with BT-474 it was 78.2 nM; with MDA-MB-361, 28.5 nM. Further, the GI50 with HCC1500 came out at 24.6 nM; in the test with MDA-MB-415 it was 53.4 nM; with ZR-75-1 it was 10.3 nM; in the test on ZR-75-30, 18.8 nM; with HCC1569 it was 120 nM.
